Measured values as given in PubChem BioAssay AID248 (DTP/NCI, 2004).
“And” between values parts separate entries of the source, which are not always exact repeats. Equal entries are not always repeated. Toxic doses and inconclusive results are not listed.

Test system: L1210 leukemia ip in BDF1 mice, survival T/C
Experiment: NCI In Vivo Anticancer Drug Screen. Data for tumor model L1210 Leukemia (intraperitoneal) in B6D2F1 (BDF1) mice
Settings: endpoint: mean survival time, higher = longer survival
Method in brief: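 Antitumor effect is assessed in tumor-bearing animals. Survival in the compound arm is compared with a vehicle-dosed control arm and expressed as their quotient.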

[1] = dose: 100.0 mg/kg/injection, schedule: Q01DX009 (ip), vehicle: Klucel (hydroxypropylcellulose) (HPC)
[2] = dose: 200.0 mg/kg/injection, schedule: Q01DX009 (ip), vehicle: Klucel (hydroxypropylcellulose) (HPC)
[3] = dose: 400.0 mg/kg/injection, schedule: Q01DX009 (ip), vehicle: Klucel (hydroxypropylcellulose) (HPC)
[4] = dose: 100.0 mg/kg/injection, schedule: Q04DX003 (ip), vehicle: saline with Tween-80
[5] = dose: 200.0 mg/kg/injection, schedule: Q04DX003 (ip), vehicle: saline with Tween-80
[6] = dose: 100.0 mg/kg/injection, schedule: Q04DX003 (ip), vehicle: Klucel (hydroxypropylcellulose) (HPC)
[7] = dose: 200.0 mg/kg/injection, schedule: Q04DX003 (ip), vehicle: Klucel (hydroxypropylcellulose) (HPC)
[8] = dose: 400.0 mg/kg/injection, schedule: Q04DX003 (ip), vehicle: saline with Tween-80
[9] = dose: 50.0 mg/kg/injection, schedule: Q01DX009 (ip), vehicle: saline
[10] = dose: 100.0 mg/kg/injection, schedule: Q01DX009 (ip), vehicle: saline
[11] = dose: 200.0 mg/kg/injection, schedule: Q01DX009 (ip), vehicle: saline
[12] = dose: 100.0 mg/kg/injection, schedule: Q01DX001 (ip), vehicle: saline
[13] = dose: 25.0 mg/kg/injection, schedule: Q01DX009 (ip), vehicle: Klucel (hydroxypropylcellulose) (HPC)
[14] = dose: 50.0 mg/kg/injection, schedule: Q01DX009 (ip), vehicle: Klucel (hydroxypropylcellulose) (HPC)

For `CN(C)Cc1ccccc1C(O)(c1ccccc1)c1ccccc1CN(C)C`, the T/C (dose: 8.0 mg/kg/injection, schedule: Q01DX015 (ip), vehicle: carboxymethylcellulose (CMC)) was 91 % of control, the T/C (dose: 16.0 mg/kg/injection, schedule: Q01DX015 (ip), vehicle: carboxymethylcellulose (CMC)) was 90 % of control and the T/C (dose: 32.0 mg/kg/injection, schedule: Q01DX015 (ip), vehicle: carboxymethylcellulose (CMC)) was 88 % of control.
With `CSc1nc(-c2cccs2)cc(C(F)(F)F)n1` the T/C (dose: 100.0 mg/kg/injection, schedule: Q04DX003 (ip), vehicle: gum acacia) was 97 % of control, the T/C (dose: 200.0 mg/kg/injection, schedule: Q04DX003 (ip), vehicle: gum acacia) was 100 % of control and the T/C (dose: 400.0 mg/kg/injection, schedule: Q04DX003 (ip), vehicle: gum acacia) was 102 % of control.
For `CCCC(=O)Nc1cc([N+](=O)[O-])ccc1OC`, the T/C [1] was 104 % of control, the T/C [2] was 104 % of control and the T/C [3] was 98 % of control.
For `CC(C)(C)NC(=O)Cc1ccccc1`, the T/C (dose: 50.0 mg/kg/injection, schedule: Q04DX003 (ip), vehicle: saline with Tween-80) was 97 % of control, the T/C [4] was 98 % of control and the T/C [5] was 103 % of control.
With `CCn1ncc2c(Nc3ccccc3)c(C(=O)c3ccccc3)cnc21` the T/C [6] was 93 % of control, the T/C [7] was 97 % of control and the T/C (dose: 400.0 mg/kg/injection, schedule: Q04DX003 (ip), vehicle: Klucel (hydroxypropylcellulose) (HPC)) was 97 % of control.
For `COc1ccc(/C(=N\O)C(c2ccc(OC)cc2)C(Cl)(Cl)Cl)cc1` (stereo not given), the T/C [1] was 92 % of control, the T/C [2] was 95 % of control and the T/C [3] was 97 % of control.
With `CSCCNC(=O)CS(=O)(=O)c1ccc(N)cc1` the T/C [4] was 97 % of control, the T/C [5] was 97 % of control and the T/C [8] was 97 % of control.
With `COc1ccc(OC)c(C(=O)CCCC(=O)O)c1` the T/C (dose: 100.0 mg/kg/injection, schedule: Q01DX009 (ip), vehicle: acetone) was 91 % of control, the T/C [4] was 96 % of control and the T/C (dose: 200.0 mg/kg/injection, schedule: Q01DX009 (ip), vehicle: acetone) was 86 % of control. The T/C [5] was 89 % of control, the T/C (dose: 400.0 mg/kg/injection, schedule: Q01DX009 (ip), vehicle: acetone) was 90 % of control and the T/C [8] was 91 % of control.
For `CC(=O)OC1C(CO)OC2C1OC1=NC(N)=NCN12` (stereo not given), the T/C (dose: 1.56 mg/kg/injection, schedule: Q01DX009 (ip), vehicle: saline) was 102 % of control and 119 % of control, the T/C (dose: 3.12 mg/kg/injection, schedule: Q01DX009 (ip), vehicle: saline) was 102 % of control and the T/C (dose: 6.25 mg/kg/injection, schedule: Q01DX009 (ip), vehicle: saline) was 95 % of control and 98 % of control. For the same molecule, the T/C (dose: 12.5 mg/kg/injection, schedule: Q01DX009 (ip), vehicle: saline) was 96 % of control and 98 % of control, the T/C (dose: 25.0 mg/kg/injection, schedule: Q01DX009 (ip), vehicle: saline) was 96 % of control and the T/C [9] was 100 % of control and 91 % of control. The T/C [10] was 104 % of control and 91 % of control and the T/C [11] was 107 % of control and 109 % of control.
In the case of `CC(C)(C)c1ccc(O)c([N+](=O)[O-])c1`, the T/C (dose: 25.0 mg/kg/injection, schedule: Q04DX002 (ip), vehicle: Klucel (hydroxypropylcellulose) (HPC)) is reported as 86 % of control, the T/C (dose: 50.0 mg/kg/injection, schedule: Q04DX002 (ip), vehicle: Klucel (hydroxypropylcellulose) (HPC)) is reported as 86 % of control and the T/C (dose: 100.0 mg/kg/injection, schedule: Q04DX002 (ip), vehicle: Klucel (hydroxypropylcellulose) (HPC)) is reported as 102 % of control and 88 % of control.
For `O=S(=O)(O)CCc1ccccn1`, the T/C [9] was 106 % of control, the T/C [10] was 109 % of control and the T/C [11] was 92 % of control.
In the case of `CC(=O)c1c(O)cc(O)cc1O`, the T/C (dose: 100.0 mg/kg/injection, schedule: Q01DX009 (ip), vehicle: saline with Tween-80) is reported as 96 % of control, the T/C (dose: 200.0 mg/kg/injection, schedule: Q01DX009 (ip), vehicle: saline with Tween-80) is reported as 91 % of control and the T/C (dose: 400.0 mg/kg/injection, schedule: Q01DX009 (ip), vehicle: saline with Tween-80) is reported as 98 % of control.
For `C/C1=C/CCCCCC1`, the T/C [12] was 90 % of control, the T/C [10] was 96 % of control and the T/C (dose: 100.0 mg/kg/injection, schedule: Q04DX003 (ip), vehicle: saline) was 96 % of control. The T/C (dose: 200.0 mg/kg/injection, schedule: Q01DX001 (ip), vehicle: saline) was 101 % of control, the T/C [11] was 89 % of control and the T/C (dose: 200.0 mg/kg/injection, schedule: Q04DX003 (ip), vehicle: saline) was 101 % of control. The T/C (dose: 400.0 mg/kg/injection, schedule: Q01DX009 (ip), vehicle: saline) was 94 % of control and the T/C (dose: 400.0 mg/kg/injection, schedule: Q04DX003 (ip), vehicle: saline) was 98 % of control.
`O=C(O)c1c2ccccc2nc2ccccc12` was tested, and the T/C (dose: 50.0 mg/kg/injection, schedule: Q01DX001 (ip), vehicle: saline) was 102 % of control and the T/C [12] was 111 % of control.
In the case of `Cc1cc(S(=O)(=O)F)ccc1NC(=O)NCc1ccc([N+](=O)[O-])cc1`, the T/C [1] is reported as 100 % of control and the T/C [2] is reported as 106 % of control.
In the case of `COc1cc(N(CCCl)CCCl)c(OC)cc1C=Nc1ccc(-c2csc(Cc3ccccc3)n2)c(Cl)c1`, the T/C (dose: 12.5 mg/kg/injection, schedule: Q01DX001 (ip), vehicle: carboxymethylcellulose (CMC)) is reported as 115 % of control, the T/C (dose: 25.0 mg/kg/injection, schedule: Q01DX001 (ip), vehicle: carboxymethylcellulose (CMC)) is reported as 105 % of control and the T/C (dose: 50.0 mg/kg/injection, schedule: Q01DX001 (ip), vehicle: carboxymethylcellulose (CMC)) is reported as 108 % of control. The T/C (dose: 88.0 mg/kg/injection, schedule: Q01DX001 (ip), vehicle: carboxymethylcellulose (CMC)) was 115 % of control, the T/C (dose: 88.0 mg/kg/injection, schedule: Q01DX009 (ip), vehicle: carboxymethylcellulose (CMC)) was 110 % of control and the T/C (dose: 133.0 mg/kg/injection, schedule: Q01DX009 (ip), vehicle: carboxymethylcellulose (CMC)) was 94 % of control. The T/C (dose: 150.0 mg/kg/injection, schedule: Q01DX001 (ip), vehicle: carboxymethylcellulose (CMC)) was 153 % of control and the T/C (dose: 300.0 mg/kg/injection, schedule: Q01DX001 (ip), vehicle: carboxymethylcellulose (CMC)) was 176 % of control and 182 % of control.
`Cc1cc(N(CCCl)CCCl)ccc1C=Nc1cccc2ncccc12` was tested, and the T/C (dose: 100.0 mg/kg/injection, schedule: Q01DX001 (ip), vehicle: other) was 95 % of control, the T/C (dose: 200.0 mg/kg/injection, schedule: Q01DX001 (ip), vehicle: other) was 97 % of control and the T/C (dose: 400.0 mg/kg/injection, schedule: Q01DX001 (ip), vehicle: other) was 93 % of control.
For `Cc1ccc(N2C=[N+](C)c3ccc(C)cc3C2)cc1`, the T/C [6] was 100 % of control and the T/C [7] was 97 % of control.
`COc1ccc(OC)c(CCCl)c1` was tested, and the T/C (dose: 100.0 mg/kg/injection, schedule: Q01DX001 (ip), vehicle: acetone) was 91 % of control, the T/C (dose: 200.0 mg/kg/injection, schedule: Q01DX001 (ip), vehicle: acetone) was 93 % of control and the T/C (dose: 400.0 mg/kg/injection, schedule: Q01DX001 (ip), vehicle: acetone) was 88 % of control.
`O=C1c2cc([N+](=O)[O-])ccc2-c2cc(Br)c(N=C(NO)C(F)(F)F)cc21` was tested, and the T/C (dose: 100.0 mg/kg/injection, schedule: Q01DX001 (ip), vehicle: carboxymethylcellulose (CMC)) was 103 % of control, the T/C (dose: 200.0 mg/kg/injection, schedule: Q01DX001 (ip), vehicle: carboxymethylcellulose (CMC)) was 98 % of control and the T/C (dose: 400.0 mg/kg/injection, schedule: Q01DX001 (ip), vehicle: carboxymethylcellulose (CMC)) was 95 % of control.
For `CCc1cccc(CC)c1N=C=Nc1c(CC)cccc1CC`, the T/C (dose: 100.0 mg/kg/injection, schedule: Q04DX003 (ip), vehicle: other) was 104 % of control, the T/C (dose: 200.0 mg/kg/injection, schedule: Q04DX003 (ip), vehicle: other) was 100 % of control and the T/C (dose: 400.0 mg/kg/injection, schedule: Q04DX003 (ip), vehicle: other) was 104 % of control.
`BrCc1ccc(CBr)c(Br)c1` was tested, and the T/C [13] was 108 % of control, the T/C [14] was 98 % of control and the T/C (dose: 50.0 mg/kg/injection, schedule: Q04DX003 (ip), vehicle: Klucel (hydroxypropylcellulose) (HPC)) was 104 % of control. The T/C [6] was 95 % of control.
In the case of `CC(C)c1oc(=O)cc2c1C(O)C1OC(=O)C3(C)C(O)C4OC4C2(C)C13` (stereo not given), the T/C [13] is reported as 109 % of control, the T/C [14] is reported as 116 % of control and the T/C [1] is reported as 106 % of control and 88 % of control.
